Here are results for 5 compounds from PMC9545147, “Impact of Sulfur Fumigation on Ginger: Chemical and Biological Evidence” (Journal of Agricultural and Food Chemistry, 2022).

Data set [1] is described as follows: Metabolite profiling in rat plasma, urine and feces by UPLC–QTOF–MS/MS. As to conditions: rats; for biological samples in which metabolite was detected, 6-Shogaol treated: 10 mg/kg oral 6-shogaol, feces/urine/plasma.
Protocol: A total of 12 adult male Sprague–Dawley rats (220–240 g) were purchased from the Chinese University of Hong Kong. The animals were kept in standard living conditions (room temperature 22 ± 1 °C, 12 h light/dark normal cycle, and constant humidity) at the animal laboratory of the School of Chinese Medicine, Hong Kong Baptist University with free access to food and water. All experimental protocols were approved by the Environmental Health and Safety Committee of Hong Kong Baptist University, Hong Kong (03/2017), and the procedures were in accordance with the guidelines of the Animal Care Ethics Committee of Hong Kong Baptist University and the Department of Health, Hong Kong Special Administrative Region. Before the experiment, the rats were kept for one week to acclimate to the new environment. The rats were randomly divided into two groups (n = 6) and fasted with water freely available. On the day of the experiment, by intragastric administration, one group received compound I and the other group received 6-shogaol. Both compounds were dissolved in 2% Tween 80 with an administration volume of less than 0.5 mL at a dose of 10 mg/kg. Then, rats were housed singly during the blood collection period (a total of 72 h). For each sample, 300–500 μL blood was collected from the eye canthus of each rat into tubes containing 1.5 mL EDTA. Samples were drawn at 0.0, 0.08, 0.25, 0.50, 0.75, 1.0, 2.0, 4.0, 6.0, 12, 24, 36, 48, 60, and 72 h. The blood samples were centrifuged at 4000 rpm for 15 min at 4 °C to obtain plasma. Urine and feces were collected every 1–2 h throughout the experiments. The blood, urine, and feces were collected before the intragastric administration as a blank sample. The rats were sacrificed by cervical spondylolisthesis after the experiment.
For metabolite identification and relative quantification, homogeneous biospecimen samples were combined during periods from 0 h to the time when plasmatic concentrations reached a maximum value (Tmax) after intragastric administration. 50 μL of each plasma or urine sample was added to 1.2 mL of MeOH to precipitate proteins. […]
Data set [2] is described as follows: MTT cell viability assay, Hep-G2. The format is cell-based. Particulars: human, Hep-G2 hepatocellular carcinoma cells, Hep-G2, 100 μM. As for the experimental part: (§1) HCT-116 colon cancer cells (Procell, Wuhan, China) were cultured in McCoy’s 5A medium (Gibco; Thermo Fisher Scientific Inc., MA, USA), Hep-G2 hepatocellular carcinoma cells (Procell, Wuhan, China) in Eagle’s minimum essential medium (EMEM, Gibco; Thermo Fisher Scientific Inc., MA, USA), and HCC-1806 breast cancer cells (Manassas, VA, USA) in RPMI-1640 medium (Gibco; Thermo Fisher Scientific Inc., MA, USA). All the mediums were supplemented with 10% fetal bovine serum and 1% penicillin–streptomycin (Thermo Fisher Scientific Inc., MA, USA) and cultured at 37 °C in a humidified incubator with 5% CO2.
(§2) Cell viability was determined by a 3-(4,5-dimethylthiazol-2-yl)-2,5-diphenyltetrazolium bromide (MTT) colorimetric assay. Each cell strain (6000 cells/well) was plated in 96-well microtiter plates and allowed to attach for 24 h at 37 °C and 5% CO2. Compound I or 6-shogaol (in dimethyl sulfoxide, DMSO) was added to the cell culture medium to desired final concentrations of 10, 40, and 100 μM. Final DMSO concentrations for control and treatments were 0.1%. There were six replicates of each condition. After the cells were cultured for 24 h, the medium was removed, and the cells were treated with 5 mg/mL MTT in fresh media. […] Absorbance values were derived from the plate reading at 490 nm on microplate readers (BioTek, Agilent).
For orientation: Formazan colour is commonly taken as a measure of viable cells.

Data set [3] can be described thus: MTT cell viability assay, HCC-1806. It is filed as cell-based. Particulars: human, HCC-1806 breast cancer cells, HCC-1806, 100 μM. As to the method:
as §1, §2

Data set [4] is described as follows: MTT cell viability assay, HCT-116. The format is cell-based, human. As to conditions: human, HCT-116 colon cancer cells; for viability at 24 h, 100 µM: HCT-116, 100 μM. As to the method:
as §1
(§3) Cell viability was determined by a 3-(4,5-dimethylthiazol-2-yl)-2,5-diphenyltetrazolium bromide (MTT) colorimetric assay. Each cell strain (6000 cells/well) was plated in 96-well microtiter plates and allowed to attach for 24 h at 37 °C and 5% CO2. Compound I or 6-shogaol (in dimethyl sulfoxide, DMSO) was added to the cell culture medium to desired final concentrations of 10, 40, and 100 μM. Final DMSO concentrations for control and treatments were 0.1%. There were six replicates of each condition. After the cells were cultured for 24 h, the medium was removed, and the cells were treated with 5 mg/mL MTT in fresh media. After incubation for 4 h at 37 °C, the medium containing MTT was removed, 100 μL of DMSO was added to the wells, and the plates were shaken gently for 30 min at room temperature. Absorbance values were derived from the plate reading at 490 nm on microplate readers (BioTek, Agilent).

Data set [5] in a line: Stability evaluation of samples in rat plasma (UPLC–QQQ–MS/MS method validation). It is filed as in vitro ADME. As to conditions: n=3; for Stability (Mean±SD), Postpreparative: rat plasma samples in autosampler for 8 h; for Stability (Mean±SD), Short Term / Stability (Mean±SD), Freeze and Thaw / Stability (Mean±SD), Long Term: rat plasma; for Stability (Mean±SD), Short Term: room temperature for 4 h; for Stability (Mean±SD), Freeze and Thaw: −20 °C for 24 h and thawed at room temperature, repeated three times; for Stability (Mean±SD), Long Term: −20 °C for 30 days. As to the method:
The established UPLC–QQQ–MS/MS methods were validated according to the guidelines of the US Food and Drug Administration.[10] Linearity, limit of detection (LOD), lower limit of quantification (LLOQ), interday and intraday accuracy and precision, extraction recovery, and stability were measured. The calibration curve was replicated three times on the same day (intraday) and over 3 days (interday) to evaluate accuracy and precision. The correlation coefficient (r^2) of all calibration curves was at least 0.995, and the bias and coefficient of variation were kept within ±15%. Matrix effect and recovery evaluation: the matrix effect was given as the ratio of mean peak area for the post-extraction spiked samples (set 2, in plasma) to that of the standard solution samples (set 1, in MeOH). Recovery was quantified as the ratio of mean peak area of the pre-extraction spiked samples (set 3, standard with homogenate plasma) to that of the post-extraction spiked samples (set 2, in plasma). Stability: (1) freeze and thaw: samples were stored at −20 °C for 24 h and thawed at room temperature and repeated three times; (2) short term: samples were maintained at room temperature for 4 h; (3) long term: samples were kept at −20 °C for 30 days; (4) postpreparative: samples were maintained in an autosampler for 8 h. The stability of all the samples was limited to within ±15%, except for the LLOQ within ±20%.

The nature of data set [6]: Pharmacokinetics in rats after single oral (intragastric) administration. The format is in vivo. As to conditions: male, Sprague-Dawley, rat, 10 mg/kg, plasma, mean ± SD (n = 6); for CL/F: read-out: Cl/F_obs (apparent total body clearance) (converted); for MRT: read-out: MRT (mean residence time); for half-life: read-out: T1/2 (terminal half-life) (converted); for Vd/F: read-out: Vz/F_obs (apparent volume of distribution). As to the method: A multiple reaction monitoring (MRM) mass acquisition method using a triple quadrupole (QQQ) mass spectrometer was used to determine compound I and 6-shogaol in rat plasma. Chromatographic separation was performed on an Agilent 1290 UPLC equipped with a binary pump with degasser (G4220A), a thermostatic column compartment (G1316C), and an autosampler (G4226A). […] The mobile phase used for the UPLC consisted of 0.1% formic acid in water (v/v) (A) and 0.1% formic acid in acetonitrile (v/v) (B). The elution gradient procedure started at 15% B, then 0–5 min, 15–75% B; 5–6 min, 75–100% B; 6–9 min, 100% B; 9–12 min, 15% B.
MS data were acquired with an Agilent 6460 QQQ mass spectrometer (G6460) equipped with a JetStream electrospray ion (ESI) source. The MRM parameters were as follows: for 6-gingesulfonic acid, negative mode; fragmentor at 120 V; ion pair m/z 357.1 → 80.9 (15 V), 357.1 → 275.1 (15 V). For 6-shogaol, positive mode; fragmentor at 80 V; ion pair m/z 277.2 → 137.0 (11 V), 277.2 → 259.1 (7 V).
The pharmacokinetic parameters were calculated using the PKSolver 2.0 add-in with a non-compartment model.[11],[12] The time to peak drug concentration (Tmax) means the time when plasma concentrations reached a maximum value (Cmax). The area under the concentration versus time curve from zero to the last sampling time (AUC0–t) and to infinity (AUC0–∞), apparent volume of distribution (Vz/F_obs), terminal half-life (T1/2), mean residence time (MRT), and apparent total body clearance (Cl/F_obs), were calculated under the PKSolver add-in. All the results were presented as the mean ± standard deviation (SD) of six independent experiments.

Data set [7] deals with HCT-116 colon cancer cells. Kind of data set: MTT cell viability assay, HCT-116. The format is cell-based, human. As to conditions: HCT-116, 10 μM, 24 h. As for the experimental part: as §1, §3

Take `CCCCCC=CC(O)CCc1ccc(O)c(OC)c1` (centres unmarked) [M1, 1-(4′-hydroxy-3′-methoxyphenyl)-4-decen-3-ol]: the “biological samples in which metabolite was detected, 6-Shogaol treated” value in data set [1] is “FUP”.
By viability is commonly meant the share of living cells, or the viability signal relative to a control. What is called AUC(0-inf) is the area under the concentration-time curve extrapolated to infinity. A low value points to less exposure. One may read the AUC(0-t) as the area under the concentration-time curve up to a stated or last time point. A high value points to high exposure. By Cmax is commonly meant the peak of the concentration-time curve. In general, Tmax refers to the time at which the peak concentration occurs. One may read the MRT as a mean duration of stay, worked out from the concentration-time curve. On to `CCCCC/C=C/C(=O)CCc1ccc(O)c(OC)c1` [6-shogaol, reference compound], for which, in data set [2], the viability at 24 h, 100 µM is 2.73%. Also, in data set [3], the viability at 24 h, 100 µM was determined as 7.84%. The same compound had a viability at 24 h, 10 µM in data set [4] (HCT-116, 10 μM) of 58.6%. The viability at 24 h, 100 µM in data set [4] was determined as 4.17%. For the same compound, in data set [5], the “Stability (Mean±SD), Postpreparative” value turned out to be 95.87±8.69%; the “Stability (Mean±SD), Short Term” value stood at 95.88±8.18%; the “Stability (Mean±SD), Freeze and Thaw” value is reported as 96.06±9.07%; the “Stability (Mean±SD), Long Term” value was 101.23±12.95%. Besides, in data set [6], the AUC(0-inf) is 121 ± 36.3 ng·h/mL, the area under the curve AUC(0-t) stood at 76.8 ± 26.9 ng·h/mL, the peak level (Cmax) was 155 ± 39 ng/mL and the Tmax turned out to be 0.14 ± 0.09 h. Moreover, in data set [6], the CL/F was 1470 mL/min/kg, the MRT was 1.02 ± 0.82 h, the half-life was 0.64 ± 0.53 h and the Vd/F turned out to be 71.9 ± 33 L/kg.
On to `CCCCCC(CC(=O)CCc1ccc(O)c(OC)c1)SCC(NC(=O)CCC(N)C(=O)O)C(=O)NCC(=O)O` (centres unmarked) [M4, 5-glutathionyl-6-shogaol], for which the “metabolite concentration in urine and feces samples of 6-gingesulfonic acid group versus 6-shogaol group” value in data set [1] (10 mg/kg oral) was “lower concentrations”.
In turn, `CCCCCC(CC(=O)CCc1ccc(O)c(OC)c1)S(=O)(=O)O` (centres unmarked) [6-gingesulfonic acid] yielded a viability at 24 h, 100 µM in data set [2] of 84.2%. Besides, the viability at 24 h, 100 µM in data set [3] amounted to 64.6%. For the same compound, in data set [4], the viability at 24 h, 100 µM was found to be 84.9%. Further, in data set [7], the cell viability result was “no significant change”. Further, in data set [5], the “Stability (Mean±SD), Postpreparative” value is given as 98.19±5.06%; the “Stability (Mean±SD), Short Term” value was found to be 99.26±1.58%; the “Stability (Mean±SD), Freeze and Thaw” value was 92.6±4.31%; the “Stability (Mean±SD), Long Term” value was found to be 92.26±4.28%. In addition, in data set [6], the total exposure AUC(0-inf) was 9580 ± 2070 ng·h/mL, the exposure AUC(0-t) was 8710 ± 1930 ng·h/mL, the maximum concentration (Cmax) was determined as 520 ± 138 ng/mL and the Tmax worked out at 5.33 ± 1.63 h. Moreover, in data set [6], the CL/F was 18 mL/min/kg, the MRT was found to be 30.4 ± 1.83 h, the half-life is 20.8 ± 5.23 h and the Vd/F came out at 32.4 ± 9.94 L/kg.
With `CCCCC/C=C/C(=O)CCc1ccc(OC2OC(C(=O)O)C(O)C(O)C2O)c(OC)c1` (stereo not drawn) [M3, s-6-shogaol-4′-O-β-glucuronide], the “biological samples in which metabolite was detected, 6-Shogaol treated” value in data set [1] is “FUP”.
